Measured values taken from patent publication US20040167217A1, “Neuroprotective effects of polyphenolic compounds” (priority 2003, published 2004).

Legend:
Male Wistar rats = assay: Brain lipid peroxides (FOX2) after T-BuOOH; type: in vivo, rat
Procedure: Male Wistar rats, weighing 140-180 g, were used for all experiments. Ten animals per experimental group were pre-administrated with curcumin, suitably suspended in distilled water, at the dose of 50 mg/kg per day, through oral intubation, for 7 days, before an intracerebroventricular injection of T-butylhydroperoxide (T-BuOOH) 2 μl of a 70% solution of phosphate buffered saline (PBS)^16. Lethality was assessed after administration of T-BuOOH at time points: 0, 2, 6, 12, and 24 h, and was expressed as the percentage of survival relative to the lethality observed in T-BuOOH plus Tween/saline vehicle (control) treated animals (FIG. 11A). […]
Briefly, brain areas were dissected and homogenized in ice cold 0.1 M, pH 7.5 phosphate buffer (final vol 1.1 ml). […] Hydroperoxides were quantitated by the FOX2 method^17. […] After centrifugation at 12,000×g for 5 min to remove any flocculated material, absorbance of the supernatant was then read at 560 nm.
Male Wistar rats, weighing 140-180 g, were used for all experiments. […] Lethality was assessed after administration of T-BuOOH at time points: 0, 2, 6, 12, and 24 h, and was expressed as the percentage of survival relative to the lethality observed in T-BuOOH plus Tween/saline vehicle (control) treated animals (FIG. 12A). […]

heme oxygenase = assay: Heme oxygenase activity assay in astrocytes; type: cell-based
Procedure: Type 1 astrocytes (DI TNC1) were purchased from the American Type Culture Collection (Manassas, VA) and cultured in Dulbecco's modified Eagle's medium containing 4.5 g/l glucose, 2 mM glutamine, 100 units/ ml penicillin, and 0.1 mg/ml streptomycin and supplemented with 10% fetal bovine serum. Cells were grown in 75-cm^2 flasks and maintained at 37° C. in a humidified atmosphere of air and 5% CO2. Confluent cells were exposed to various concentrations of curcumin, CAPE, or Curcumin-95. After each treatment (6 or 24 h), cells were harvested for the determination of heme oxygenase activity, HO-1 protein expression, and intracellular glutathione. Astrocytes growing in 24 wells were exposed to polyphenolic compounds, and cell viability was determined at 24 h. Heme oxygenase activity was determined at the end of each treatment as described previously by Foresti, et al.^18 and Motterlini, et al.^19 Briefly, microsomes from harvested cells were added to a reaction mixture containing NADPH, glucose-6-phosphate dehydrogenase, rat liver cytosol as a source of biliverdin reductase, and the substrate hemin. The reaction mixture was incubated in the dark at 37° C. for 1 h and was terminated by the addition of 1 ml of chloroform. After vigorous vortex and centrifugation, the extracted bilirubin in the chloroform layer was measured by the difference in absorbance between 464 and 530 nm (ε=40 mM^−1cm^−1).

HO-1 = HO-1 protein expression, Western blot, cortical neurons; type: cell-based, rat
Procedure: HO-1 and hsp70 protein levels were assessed by Western immunoblot technique using a polyclonal rabbit anti-HO-1 antibody (Stressgen; Victoria, Canada), and a polyclonal rabbit hsp70 antibody. Briefly, an equal amount of proteins (30 μg) for each sample was separated by SDS-polyacrylamide gel electrophoresis and transferred to nitrocellulose membranes, and the non-specific antibodies were blocked with 3% non-fat dried milk in PBS. Membranes were then probed with a polyclonal rabbit anti HO-1 antibody (Stressgen) (1:1000 dilution in Tris-buffered saline, pH 7,4) or with a monoclonal rabbit anti-Hsp72 antibody (Amersham Pharmacia Biotechnology) (1:1000 dilution in Tris-buffered saline, pH 7,4), that recognizes only the Hsp 70 inducible isoform. Blots were then visualized using an amplified alkaline phosphate kit from Sigma.

cerebellar granule cells = assay: Oligonucleosome formation (cell death detection ELISA), low K+; type: cell-based, rat; conditions: for apoptosis (oligonucleosome formation) induced by low extracellular K+: curcumin 1, 5, 10, 25 and 50 μM
Procedure: Primary cultures of cortical neurons and cerebellar granule cells were prepared. In brief, cortical neurons were prepared from fetal brain from 17-day pregnant rat and cerebellar granule cells from 8-day old rats. Brain tissues were dissociated through trypsinization in 0.025% trypsin solution and trituration. Dissociated cells were collected through centrifugation and resuspended in standard medium containing: basal Eagle's medium containing 10% fetal bovine serum (FCS), 2 mM glutamine, genatmycin 0.05 mg/ml, and 25 mM KCI. Cells were plated at a density of 1.8×10^6 onto 35-mm dishes coated with 10 micrograms/ml ply-L-lysine.
To induce programmed cell death in […] granule cells, two different experimental well-established paradigms: serum deprivation and low K^+, were performed. In particular, neurons were cultured after their plating in serum free medium containing 25 mM KCI or in standard medium for 6 days and then agitating them in a medium containing 10% FCS and 5 mM KCI. In both of these paradigms, control cells were grown in medium containing 10% FCS and 25 mM KCI.
To induce apoptosis in cortical neurons, β-amyloid peptide (1-40), a molecule related to the pathogenesis of Alzheimer disease and a well known inducer of apoptosis was added.

[1] = test system: Type 1 astrocytes (DI TNC1); assay: Intracellular glutathione (GSH, GSSG) in astrocytes; type: cell-based
Procedure: Type 1 astrocytes (DI TNC1) were purchased from the American Type Culture Collection (Manassas, VA) and cultured in Dulbecco's modified Eagle's medium containing 4.5 g/l glucose, 2 mM glutamine, 100 units/ ml penicillin, and 0.1 mg/ml streptomycin and supplemented with 10% fetal bovine serum. Cells were grown in 75-cm^2 flasks and maintained at 37° C. in a humidified atmosphere of air and 5% CO2. Confluent cells were exposed to various concentrations of curcumin, CAPE, or Curcumin-95. After each treatment (6 or 24 h), cells were harvested for the determination of heme oxygenase activity, HO-1 protein expression, and intracellular glutathione. […] GSH and GSSG levels were measured after 6- and 24- h exposure of astrocytes to curcumin and CAPE using a method previously described^19,20. Briefly, cells harvested in cold PBS were freeze-thawed three times, and an aliquot of this suspension was added to a buffer solution containing 12 mM EDTA and 10 mM 5,5′-dithiobis-(2-nitrobenzoic acid). Total glutathione was measured spectrophotometrically (optical density=412nm) using the glutathione reductase-recycling assay. To determine the amount of GSSG, an aliquot of the cell suspension was added to an equal volume of buffer containing EDTA and N-ethylmaleimide (10 mM). The sample was mixed and centrifuged, and the supernatant was passed through a C18 Sep-Pak cartridge (Waters, Milford, Mass.) to remove the excess N-ethylmaleimide. The sample was added to a cuvette containing 5,5′-dithiobis-(2-nitrobenzoic acid) and glutathione reductase, and the assay was performed as for the measurement of total glutathione. Intracellular glutathione was determined by comparison with a standard curve obtained with GSH and GSSG solutions and was expressed as nmoles/mg of protein.

[2] = high concentrations (50 and 100 μM)

COc1cc(C=CC(=O)CC(=O)C=Cc2ccc(O)c(OC)c2)ccc1O [curcumin, 1,7-bis[4-Hydroxy-3-methoxyphenyl]-1,6-heptadiene-3,5-dione]
lipid peroxides in brain areas (oxidative damage) (Male Wistar rats; 50 mg/kg per day oral for 7 days before T-BuOOH, cortex, striatum, hippocampus, cerebellum): prevented the oxidative damages to neuronal tissues | increase in heme oxygenase activity (heme oxygenase; 6 h, 15 μM): 7.4 fold | increase in heme oxygenase activity (heme oxygenase; 6 h, 30 μM): 9.1 fold | heme oxygenase activity (heme oxygenase; 6 h, 30 μM (control 247±5)): 2461±194 pmol of bilirubin/mg of protein/h | heme oxygenase activity (heme oxygenase; 6 h, 30 μM plus 1 mM NAC): 2392±22 pmol of bilirubin/mg of protein/h | heme oxygenase activity (heme oxygenase; 6 h, 50 μM, absence of NAC): 492±30 pmol of bilirubin/mg of protein/h | heme oxygenase activity (heme oxygenase; 6 h, 50 μM, presence of 1 mM NAC): 752±78 pmol of bilirubin/mg of protein/h | effect of NAC on the increase in heme oxygenase activity (heme oxygenase; 6 h, 15 and 30 μM, 1 mM NAC): not significantly affected by the presence of NAC | heme oxygenase activity (heme oxygenase; [2]): unable to stimulate an increase in heme oxygenase activity | elevation in heme oxygenase activity (heme oxygenase; higher concentrations (50-100 μM)): 1.9 fold | HO-1 protein expression / HO-1 induction (HO-1): directly correlated with HO-1 protein levels | concentration with strongest / most effective anti-apoptotic effect (cerebellar granule cells): 25 µM | apoptosis (oligonucleosome formation) induced by low extracellular K+ (cerebellar granule cells): significantly reduced apoptosis | glutathione oxidation (GSSG) ([1]; 6 h, 50 μM): caused oxidation | intracellular GSH ([1]; 6 h, 50 μM): without affecting the GSH content | intracellular GSH ([1]; 6 h, 15 and 30 μM): significant increase | intracellular GSSG ([1]; 6 h, 15 and 30 μM): significant increase | intracellular GSH ([1]; 24 h, 15, 30, and 50 μM): concentration-dependent decrease in GSH | intracellular GSSG ([1]; 24 h, 15, 30, and 50 μM): gradual and substantial increase in GSSG levels

O=C(/C=C/c1ccc(O)c(O)c1)OCCc1ccccc1 [CAPE, Caffeic acid phenethyl ester]
lipid peroxides in brain areas (oxidative damage) (Male Wistar rats; 20 mg/kg per day oral for 7 days before T-BuOOH): prevented oxidative damages to neuronal tissues | concentration of maximal enzyme activation (heme oxygenase): 30 µM | enzyme activation and protein expression at 100 μM compared with 30 μM (heme oxygenase; 100 μM): significantly less effective | heme oxygenase activity (heme oxygenase; [2]): unable to stimulate an increase in heme oxygenase activity | heme oxygenase activity (heme oxygenase; low concentrations 15-50 μM): substantial increase | HO-1 protein expression / HO-1 induction (HO-1): strongly induce HO-1 | concentration with strongest / most effective anti-apoptotic effect (cerebellar granule cells): 25 µM | apoptosis (oligonucleosome formation) induced by low extracellular K+ (cerebellar granule cells): strong dose-dependent anti-apoptotic effect | intracellular GSH ([1]; 6 h, 50 μM): did not affect GSH | intracellular GSH ([1]; 6 h, 15 and 30 μM): elevation of GSH | intracellular GSH ([1]; 24 h, 50 μM): significant depletion of GSH | intracellular GSSG ([1]; 24 h, 50 μM): concomitant elevation in GSSG | intracellular GSH ([1]; 24 h, 15 and 30 μM): marked reduction
